Test results taken from patent publication US8734775B2, “Chemokine derived peptides that bind with chemokine receptor CXCR3 and uses for chronic wound and angiogenesis inhibition treatments” (University of Pittsburgh, priority 2011, dated 2014).

What was measured:
CXCR3 on HMEC-1 cells = target: T1, CXCR3 on HMEC-1 cells (Homo sapiens, UniProt P49682); assay: Flow cytometry binding of biotin-tagged peptide to HMEC-1 cells
T1 construct: HMEC-1 cells express CXCR3; endogenous in cells; host or cells: HMEC-1 (human dermal microvascular endothelial cells)
T1 sequence (P49682 1-415 isoform P49682-2): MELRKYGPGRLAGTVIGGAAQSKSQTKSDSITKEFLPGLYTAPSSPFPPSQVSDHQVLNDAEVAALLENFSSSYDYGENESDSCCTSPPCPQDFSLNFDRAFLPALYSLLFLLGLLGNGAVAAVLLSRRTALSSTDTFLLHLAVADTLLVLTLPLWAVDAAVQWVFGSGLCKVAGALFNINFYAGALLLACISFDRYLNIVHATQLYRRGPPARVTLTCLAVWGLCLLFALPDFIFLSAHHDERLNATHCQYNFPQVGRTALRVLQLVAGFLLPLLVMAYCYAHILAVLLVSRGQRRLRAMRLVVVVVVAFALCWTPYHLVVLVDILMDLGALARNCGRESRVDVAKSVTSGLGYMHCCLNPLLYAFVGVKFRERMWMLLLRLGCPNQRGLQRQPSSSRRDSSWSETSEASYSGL
Procedure: In the various experiments described below, unless otherwise noted, Biotin labeling was accomplished according to the following procedure. Sulfo-NHS-LC-Biotin (Thermo Scientific 21327) was prepared to result in a 10 mM solution of Biotin. IP-10, IP-10dp or anti-CXCR3 neutralizing antibody were dissolved in PBS according to result in a 20-fold molar excess of biotin reagent to give a 4-6 biotin groups per peptide molecule. The biotin reagent and IP-10 and/or IP-10dp was mixed and incubated on ice for 2 hours. Appropriate controls were used to determine the levels of biotin incorporation. HMEC-1 cells were washed in ice-cold PBS (pH 8) to remove amine-containing media and proteins. Cells were suspended and Sulfo-NHS-LC-Biotin label peptide was added. Mixture was incubated at 4° C. to reduce active internalization of the biotin reagent for 30 minutes. Cells were then washed three times in PBS+100 mM glycine to quench and remove excess biotin. Cells were then incubated with streptavidin conjugated with FITC and analyzed on a BD FACSCalbur flow cytometer.
To determine whether IP-10dp binds to CXCR3 on human dermal microvascular endothelial cells, we analyzed the ability of Sulfo-LC-Biotin tagged IP-10 and IP-10dp to bind to H MEC-1 cells using flow cytometery. […] The cells were then incubated with FITC conjugated with streptavidin, and then analyzed on a BD FACSCalbur flow cytometer. […]

HMEC-1 cells = assay: Tube dissociation assay on GFR-Matrigel; type: cell-based, human; settings: IP-10dp 10 μM
Procedure: For this tube dissociation assay, HMEC-1 cells were first re-suspended in 1% FBS MCDB131 media containing VEGF (75 ng/ml) and incubated on GFR-Matrigel for 24 hrs at 37° C. to allow tube formation (the average result reflected labeled “24 VEGF . . . ” in FIG. 5B). The media was removed and replaced with combinations of VEGF (75 ng/ml), IP-10 (300 ng/ml), or IP-10dp (10 μM) then incubated for another 24 hours. After 48 hours, tubes were still present in the controls treated only with VEGF (labeled 48 hr VEGF in FIG. 5B).
The cells cultures were imaged to assess tube formation using similar procedures to that described above for Experiment 3. […]
Again, quantification of the endothelial tube area for the various cell cultures was determined using MetaMorph, and the data reported in the graph are of at least N=6 and normalized to no treatment (average±SEM), with *P<0.05.

[1] = test system: cAMP production in HMEC-1 cells; assay: cAMP enzyme immunoassay in endothelial cells; type: cell-based, human
Procedure: Thus, an experiment was conducted to determine if stimulation of endothelial cells with IP-10dp would induce an increase in cAMP. HMEC-1 cells were plated in 10 mm culture dishes and grown to confluency in complete growth media. The cells were then incubated in serum-reduced media (0.5% dialyzed FBS for HMEC-1 cells) for 24 hours at 37° C. The cells were then washed once with PBS and incubated in serum-free media. The cells were then stimulated with forskolin ([…]), VEGF (100 ng/ml), IP-10 (200 ng/ml), IP-10dp (10 μM) alone or in various combinations. The media was removed and ice cold 80% ethanol was added and the cells incubated on ice for 15 minutes. The extracts were evaluated and quantified for total cAMP production by using a cAMP enzyme immunoassay kit provided by Sigma-Aldrich Corp., of St. Louis, Mo., according to the manufacturer's protocol.

binding to HMEC-1 cells (CXCR3 on HMEC-1 cells; Sulfo-LC-Biotin tagged peptide, streptavidin-FITC, flow cytometry): binds to human endothelial cells | fluorescence intensity of binding to CXCR3 on HMEC-1 cells compared with full length IP-10 (CXCR3 on HMEC-1 cells; relative to control, biotin-tagged): slightly lower fluorescence intensity
Sequence: PESKAIKNLLKAVSKEMSKRSP (IP-10dp; listed as Homo sapiens) [synthetic fragment of IP-10 comprising residues 78-98, the C-terminal α-helical domain]
endothelial cords following treatment (HMEC-1 cells; 24-48 hrs): significant decrease in endothelial cords | dissociation of newly formed tubes (HMEC-1 cells; treatment 24-48 hrs, presence and absence of VEGF, IP-10 300 ng/ml): induce dissociation of newly formed tubes | increase in cAMP production compared to control and VEGF treated cells ([1]; IP-10dp 10 μM): 2-3 fold | cAMP production with VEGF plus IP-10dp compared to VEGF alone ([1]; VEGF 100 ng/ml plus IP-10dp 10 μM): significant increase in cAMP production
